From patent US20080176810A1, “Use of 3, 4', 5-Trihydroxy-Stilbene-3-Beta-D-glucoside in Prepartion of Medicines For Treating and/or Preventing Ischemic Heart Disease” (SHENZHEN NEPTUNUS PHARMACEUTICAL CO., LTD., priority 2004, published 2008)

Legend:
[1] = test system: ischemic reperfusion injury of myocardium; assay: Ischemic reperfusion injury of myocardium in rats, iv; assay type: in vivo, SD rats; conditions: for CK / LDH: serum
Description: Administration was performed by femoral intravenous injection.
(1) Method of operation and ligation of coronary artery: Male SD rats were anesthetized with pentobarbital sodium (45 mg/kg) and immobilized on their backs for records of II lead ECG with an electrocardiograph (ECG-6851C, manufactured by Shanghai Photoelectrical Medical Electronic Apparatus Co., Ltd.). Tracheas were intubated and connected to a breathing apparatus. Thoracotomy was performed at intercostal space on left chest for cutting down fourth/fifth rib and opening cardiac pericardium to expose the heart. A 0/3 suture line was passed underneath the left branch of anterior descending coronary artery. After 10 minutes of stabilization (those with abnormal ECG after stabilization were abandoned). With two thrums passing through a small piece of fine silicone tube, a ligature was made on another small piece of fine silicone tube for ischemic ligation (those with no changes in ST segment and T-wave were excluded). After 10 minutes of ligation, drugs were injected slowly through femoral veins. 40 minutes later, the lines for ligation were cut off to reperfuse the anterior descending branch for 30 minutes.
(2) Detection of lactate dehydrogenase (LDH) and creatine kinase (CK): After completion of reperfusion, blood was sampled from abdominal aorta to determine serum activity of LDH and CK with ultraviolet spectrometry.
(3) Measurement of the area of myocardial infarction: With same thickness, 5 slices of ventricular myocardium were cut off from the part under the line of coronary ligation and in parallel to atrioventricular furrow and put into staining solution of nitroblue tetrazolium (N-BT) for 15 min of shaking dyeing. Normal myocardium would be dyed to lasureous color, while the infarct part of myocardium would not be dyed and remain pale-yellow. Under a microscopy, the infarct part was separated and weighed, and the percentage (%) of the weight of infarct part to the weight of total myocardium was adopted as the index for area of myocardial infarction.
(4) Data and statistic treatment: Data in all groups were presented with x±s and analysis of variance was adopted to check their significance.

vascular smooth muscle = conditions: 0.02 mM~2 mM; cited from earlier work
Kunming mice = assay: Acute toxicity test of mice, intravenous injection; conditions: single dose tail intravenous injection
Description: Drugs were medicated via intravenous injection at different concentration in same volume, which was 20 ml/kg.
40 healthy Kunming mice were selected and randomly divided into 4 groups. Drugs were injected via tail vein at one time and the doses were 300 mg/kg, 425 mg/kg, 600 mg/kg and 850 mg/kg, respectively. Mice were constantly observed for 4 hours after the injection. After that, observations were carried out once in the morning and once in the afternoon for 7 days continuously. Signs of intoxation and time of death were recorded.

[2] = test system: myocardial infarction induced by ligation of coronary artery; assay: Canine model of myocardial infarction induced by ligation of coronary artery, iv; assay type: in vivo, dogs; conditions: for sum of ST (ΣST) segment elevation, x ± s: 0 min before, c3-c8 5,15,30,60,90,120 min after administration; for IZ/LV / IZ/WT: N-BT staining; for CK after administration / CK before administration / LDH after administration / LDH before administration: serum
Description: Drugs were medicated with intravenous injection. The volume of the drug administered was the same as that of normal saline for the animal model group of ischemic reperfusion with administrative volume of 2 ml/kg.
After weighing, the animals were anesthetised with pentobarbital sodium iv at the dose of 30 mg/kg. Tracheal intubation was performed and SC-M5 anesthesia respirator (manufactured by Shanghai Medical Instrument Factory) was connected for mechanical ventilation (16˜18 per min with tidal volume of 350˜550 ml) after thoracotomy at the fourth intercostal space of left sternal border. With exposure of the heart, the pericardium was cut open to make pericardium hammock. The coronary artery was dissociated from between the first and second branches of left anterior descending coronary artery, underneath which passed through silk threads for two-step ligation. On surface of heart were placed 30-point epicardial leads, to which four limbs were connected through needle-electrodes, which in turn were connected to Powerlab/8s (AD Instruments) with a multichannel switcher. Harris Two-step Ligation was performed. Two minutes before first ligation, 5 mg/kg lidocaine was given by femoral intravenous injection to prevent arrhythmia. While performing ligation, a steel wire of 1 mm in diameter was inserted into the first knot so as to be ligated together with the coronary artery. Afterward, the steel-wire was pulled out and then 30 min later, the second knot was made to complete the ligation.
The epicardial electrogram 10 min after completing the ligation was recorded as the control value before drug administration. Later, test drug was given by femoral intravenous injection while the negative control group was given solvent of same volume. Constant dripping was completed within 30 min for all groups with a constant flow pump (SH-88AB Controllable Intravenous Injector made by Quanzhou Lizhong Electronic Medical Instrument Factory). After completion of the constant dripping, changes of epcardial electrogram at 5, 15, 30, 60, 90 and 120 min after administration were recorded respectively. The number of ST segment elevation or depression to more than 2 mV and sum of total value ST segment elevation (ΣST) were applied as the indexes for observation of changes of epcardial electrogram and to calculate the percentage of the weight of infarct area to the weight of whole heart or to the weight of left ventricle. 3 ml of blood from right ventricle was sampled before ligation and 2 hrs after administration. After centrifuged at 3000 rpm for 15 min, serum was taken to detect lactate dehydrogenase (LDH) and serum creatine kinase (CK). Method according to instruction of the LDH and CK Assay kit (batch no: 20020523, Nanjing Jiancheng Bioengineering Institute) (ENR: U90625, Randox Company, UK) was adopted for detection. The performance was with a ultraviolet/visible range spectrophotometer of UV751GD type (Shanghai analytical apparatus Factory).

Substance: 3,4′,5-trihydroxy-stilbene-3-β-D-glucoside [TSG]
- Infarct area percentage ([1]; high dose 30.0 mg/kg iv): 23.71 ± 3.66 %
- CK ([1]; high dose 30.0 mg/kg iv): 559.4 ± 72.9 IU/L
- LDH ([1]; high dose 30.0 mg/kg iv): 744.0 ± 149.2 IU/L
- Infarct area percentage ([1]; low dose 7.5 mg/kg iv): 27.57 ± 5.33 %
- CK ([1]; low dose 7.5 mg/kg iv): 710.7 ± 106.8 IU/L
- LDH ([1]; low dose 7.5 mg/kg iv): 857.7 ± 124.0 IU/L
- Infarct area percentage ([1]; middle dose 15.0 mg/kg iv): 24.80 ± 3.32 %
- CK ([1]; middle dose 15.0 mg/kg iv): 630.6 ± 108.6 IU/L
- LDH ([1]; middle dose 15.0 mg/kg iv): 809.4 ± 128.4 IU/L
- intracellular calcium concentration in vascular smooth muscle (vascular smooth muscle): increase intracellular calcium concentration in vascular smooth muscle remarkably
- signs of intoxication (Kunming mice): body shaking, occasionally restlessness, twitch and other responses appeared
- time of death after the drug injection (Kunming mice): 5 to 1440 min
- CK B/A ([2]; TSG 2.5 mg/kg): 2.54 ± 0.27
- LDH B/A ([2]; TSG 2.5 mg/kg): 2.28 ± 0.21
- sum of ST (ΣST) segment elevation, x ± s ([2]; TSG 2.5 mg/kg iv, 0 min before administration): 154.5 ± 60.4 mV
- sum of ST (ΣST) segment elevation, x ± s ([2]; TSG 2.5 mg/kg iv, 5 min after administration): 154.7 ± 55.0 mV
- sum of ST (ΣST) segment elevation, x ± s ([2]; TSG 2.5 mg/kg iv, 30 min after administration): 129.2 ± 57.7 mV
- sum of ST (ΣST) segment elevation, x ± s ([2]; TSG 2.5 mg/kg iv, 60 min after administration): 122.7 ± 59.6 mV
- sum of ST (ΣST) segment elevation, x ± s ([2]; TSG 2.5 mg/kg iv, 90 min after administration): 128.3 ± 55.1 mV
- IZ/LV ([2]; TSG 2.5 mg/kg): 21.68 ± 1.88 %
- IZ/WT ([2]; TSG 2.5 mg/kg): 11.70 ± 0.93 %
- CK after administration ([2]; TSG 2.5 mg/kg): 446.6 ± 39.4 IU/L
- CK before administration ([2]; TSG 2.5 mg/kg): 176.7 ± 18.8 IU/L
- LDH after administration ([2]; TSG 2.5 mg/kg): 823.3 ± 186.3 IU/L
- LDH before administration ([2]; TSG 2.5 mg/kg): 359.7 ± 70.5 IU/L
- CK B/A ([2]; TSG 5.0 mg/kg): 1.98 ± 0.38
- LDH B/A ([2]; TSG 5.0 mg/kg): 2.09 ± 0.16
- sum of ST (ΣST) segment elevation, x ± s ([2]; TSG 5.0 mg/kg iv, 0 min before administration): 153.8 ± 50.7 mV
- sum of ST (ΣST) segment elevation, x ± s ([2]; TSG 5.0 mg/kg iv, 5 min after administration): 148.0 ± 39.9 mV
- sum of ST (ΣST) segment elevation, x ± s ([2]; TSG 5.0 mg/kg iv, 30 min after administration): 116.2 ± 53.7 mV
- sum of ST (ΣST) segment elevation, x ± s ([2]; TSG 5.0 mg/kg iv, 60 min after administration): 105.3 ± 53.6 mV
- sum of ST (ΣST) segment elevation, x ± s ([2]; TSG 5.0 mg/kg iv, 90 min after administration): 103.8 ± 54.1 mV
- IZ/LV ([2]; TSG 5.0 mg/kg): 15.25 ± 1.41 %
- IZ/WT ([2]; TSG 5.0 mg/kg): 9.03 ± 1.16 %
- CK after administration ([2]; TSG 5.0 mg/kg): 356.2 ± 64.8 IU/L
- CK before administration ([2]; TSG 5.0 mg/kg): 180.8 ± 13.2 IU/L
- LDH after administration ([2]; TSG 5.0 mg/kg): 587.1 ± 170.6 IU/L
- LDH before administration ([2]; TSG 5.0 mg/kg): 281.2 ± 80.9 IU/L
- CK B/A ([2]; TSG 10 mg/kg): 1.74 ± 0.37
- LDH B/A ([2]; TSG 10 mg/kg): 1.99 ± 0.14
- sum of ST (ΣST) segment elevation, x ± s ([2]; TSG 10 mg/kg iv, 0 min before administration): 155.0 ± 46.4 mV
- sum of ST (ΣST) segment elevation, x ± s ([2]; TSG 10 mg/kg iv, 5 min after administration): 151.7 ± 35.6 mV
- sum of ST (ΣST) segment elevation, x ± s ([2]; TSG 10 mg/kg iv, 30 min after administration): 115.2 ± 50.9 mV
- sum of ST (ΣST) segment elevation, x ± s ([2]; TSG 10 mg/kg iv, 60 min after administration): 104.7 ± 45.5 mV
- sum of ST (ΣST) segment elevation, x ± s ([2]; TSG 10 mg/kg iv, 90 min after administration): 102.0 ± 51.8 mV
- IZ/LV ([2]; TSG 10 mg/kg): 13.92 ± 1.32 %
- IZ/WT ([2]; TSG 10 mg/kg): 8.65 ± 1.11 %
- CK after administration ([2]; TSG 10 mg/kg): 299.5 ± 63.9 IU/L
- CK before administration ([2]; TSG 10 mg/kg): 172.7 ± 11.1 IU/L
- LDH after administration ([2]; TSG 10 mg/kg): 551.6 ± 131.3 IU/L
- LDH before administration ([2]; TSG 10 mg/kg): 279.3 ± 70.8 IU/L
